Measured values: patent publication US20160367685A1, “DUPA-INDENOISOQUINOLINE CONJUGATES” (PURDUE RESEARCH FOUNDATION, priority 2013, published 2016)
pIC50, pKi: −log10 of the molar value. Entries after “also recorded” stand apart in the source; their conditions may differ. Read-outs that look alike come from different tables or passages of the source.

Columns and labels:
[1] = system: NCI panel of 60 human cancer cell lines; experiment: Cytotoxicity mean-graph midpoint in NCI panel of 60 cancer cell lines; format: cell-based; details: for MGM (μM), cytotoxicity mean-graph midpoint: approximate average of GI50 across the panel
[2] = target: T1, Top1 (Homo sapiens, UniProt P11387); experiment: Top1-mediated DNA cleavage assay; format: biochemical; parameters: key: 0: no inhibitory activity; +: between 20% and 50% activity; ++: between 50% and 75% activity; +++: between 75% and 95% activity; ++++: equipotent; +++++: more potent; details: graded relative to 1 μM camptothecin
T1 sequence (P11387 1-765): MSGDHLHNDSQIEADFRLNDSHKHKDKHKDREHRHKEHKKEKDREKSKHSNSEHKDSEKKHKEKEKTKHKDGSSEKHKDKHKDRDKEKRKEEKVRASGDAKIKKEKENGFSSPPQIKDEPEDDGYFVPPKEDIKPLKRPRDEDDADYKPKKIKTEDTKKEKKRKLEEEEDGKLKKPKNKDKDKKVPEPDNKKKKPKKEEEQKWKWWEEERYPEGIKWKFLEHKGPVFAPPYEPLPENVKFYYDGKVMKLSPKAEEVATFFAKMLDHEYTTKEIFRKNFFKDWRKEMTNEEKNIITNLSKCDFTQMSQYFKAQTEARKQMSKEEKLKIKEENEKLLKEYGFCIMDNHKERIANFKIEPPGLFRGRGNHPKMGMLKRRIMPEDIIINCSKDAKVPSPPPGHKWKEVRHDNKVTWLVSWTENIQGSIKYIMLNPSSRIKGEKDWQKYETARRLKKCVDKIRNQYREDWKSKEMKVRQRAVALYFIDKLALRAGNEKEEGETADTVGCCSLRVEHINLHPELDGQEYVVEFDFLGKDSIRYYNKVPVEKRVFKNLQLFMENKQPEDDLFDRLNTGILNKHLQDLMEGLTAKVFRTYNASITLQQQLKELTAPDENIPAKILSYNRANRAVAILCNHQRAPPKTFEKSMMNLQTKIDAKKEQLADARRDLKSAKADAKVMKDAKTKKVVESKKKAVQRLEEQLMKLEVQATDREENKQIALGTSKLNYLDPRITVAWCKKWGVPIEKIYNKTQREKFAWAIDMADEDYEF

[3] = system: LNCap cell cultures; experiment: Cytotoxicity in LNCap cell cultures; format: cell-based; details: LNCap cell cultures (FIG. 3)
Excerpt: The excellent cytotoxicities of the DUPA conjugates served as an indication that the disulfide reduction and conversion of the intermediates to the base drugs (6 and 18) are occurring intracellularly. Although an increase in potency has not been observed yet, this encouraging result partially supported our initial hypothesis, and urged further optimization of the peptide linker to facilitate the drug releasing mechanism.

[4] = system: 22RV1 tumors; experiment: 22RV1 xenograft-bearing mice therapy study; details: for tumor growth during the treatment period: alternate days; for tumor growth during the treatment period / toxicity to the animals: 3 days/week for 3 weeks; for toxicity to the animals / body weight during the treatment period: 40 nmol/mouse IP; for body weight during the treatment period: live mice, 3 days/week for 3 weeks (FIG. 6)
[5] = system: 22RV1 cells; experiment: cells; format: cell-based, human; details: for pIC50: read-out: IC50
Protocol: 22RV1 cells were seeded in 24-well (50000 cells/well) Falcon plates and allowed to form monolayers over a period of 24-48 h. The old medium was replaced with fresh medium (0.5 mL) containing increasing concentrations of drug (either targeted or non-targeted) and cells were incubated for an additional 2 h and 24 h (in the case of targeted drug) at 37° C. Cells were washed (3×0.5 mL) with fresh medium and incubated in fresh medium (0.5 mL) for another 66 h at 37° C. The spent medium in each well was replaced with fresh medium (0.5 mL) containing [^3H]-thymidine (1 mCi/mL), and the cells were incubated for additional 4 h at 37° C. to allow [^3H]-thymidine incorporation. The cells were then washed with medium (2×0.5 mL) and treated with 5% trichloroacetic acid (0.5 mL) for 10 min at room temperature. The trichloroacetic acid was replaced with 0.25 N NaOH (0.5 mL) and the cells were transferred to individual scintillation vials containing Ecolume scintillation cocktail (3.0 mL), mixed well to form homogeneous liquid, and counted in a liquid scintillation analyzer. IC50 values were calculated by plotting %[^3H]-thymidine incorporation versus log concentration of drugs (targeted and non-targeted) using in GraphPad Prism 4.
The IC50 value of the indenoisoquinoline 18 itself was 2.0 nM when determined after a 2 h incubation. […] An increase in potency of 86 relative to 18 was not observed. […] However, the potential value of the conjugate 86 is lack of cytotoxicity in “normal” cells, which would result in 86 being a less toxic anticancer drug.

[6] = Water solubility at room temperature; format: physicochemical
[7] = system: PSMA; details: PSMA ligand, literature value; cited from earlier work
[8] = Table 1, average of two determinations

NCCCn1c2c(c3ccc(Br)cc3c1=O)C(=O)c1cc3c(cc1-2)OCO3
MGM (μM), cytotoxicity mean-graph midpoint ([1]; Table 2): 0.329 µM | Top1 inhibitory activity ([2]; Table 2): ++++

NCCCn1c2c(c3ccc([N+](=O)[O-])cc3c1=O)C(=O)c1cc3c(cc1-2)OCO3
MGM (μM), cytotoxicity mean-graph midpoint ([1]; Table 2): 0.090 µM | Top1 inhibitory activity ([2]; Table 2): ++++

COc1ccc2c(c1)C(=O)c1c-2n(CCCN)c(=O)c2cc([N+](=O)[O-])ccc12 [Compound 6]
MGM (μM), cytotoxicity mean-graph midpoint [1, 8]: 0.047 µM | cytotoxicities [3]: low nanomolar range | Top1 inhibitory activity ([2]; Table 1): ++++

Br.COc1cc2c(cc1O)C(=O)c1c-2n(CCCN)c(=O)c2cc([N+](=O)[O-])ccc12 [Compound 12, 6-(3-Aminopropyl)-9-hydroxy-8-methoxy-3-nitro-5H-indeno[1,2-c]isoquinoline-5,11(6H)-dione hydrobromide]
MGM (μM), cytotoxicity mean-graph midpoint [1, 8]: 0.019 µM | Top1 inhibitory activity ([2]; Table 1): ++ (between 50% and 75% activity)

Br.COc1cc2c(cc1O)C(=O)c1c-2n(CCCN2CCOCC2)c(=O)c2cc([N+](=O)[O-])ccc12 [Compound 13, 9-Hydroxy-8-methoxy-6-(3-morpholinopropyl)-3-nitro-5H-indeno[1,2-c]isoquinoline-5,11(6H)-dione hydrobromide]
MGM (μM), cytotoxicity mean-graph midpoint [1, 8]: 0.021 µM | Top1 inhibitory activity ([2]; Table 1): ++ (between 50% and 75% activity)

Br.COc1cc2c(cc1O)C(=O)c1c-2n(CCCn2ccnc2)c(=O)c2cc([N+](=O)[O-])ccc12 [Compound 14, 6-(3-(1H-Imidazol-1-yl)propyl)-9-hydroxy-8-methoxy-3-nitro-5H-indeno[1,2-c]isoquinoline-5,11(6H)-dione hydrobromide]
MGM (μM), cytotoxicity mean-graph midpoint [1, 8]: 0.019 µM | Top1 inhibitory activity ([2]; Table 1): + (between 20% and 50% activity)

COc1ccc2c(c1)C(=O)c1c-2n(CCCNCCO)c(=O)c2cc([N+](=O)[O-])ccc12 [Compound 15]
MGM (μM), cytotoxicity mean-graph midpoint [1, 8]: 0.016 µM | Top1 inhibitory activity ([2]; Table 1): ++++

Cl.NCCCn1c2c(c3ccc([N+](=O)[O-])cc3c1=O)C(=O)c1cc3c(cc1-2)OCO3 [Compound 16, 6-(3-Aminopropyl)-5,6-dihydro-8,9-methylenedioxy-3-nitro-5,11-dioxo-11H-indeno[1,2-c]isoquinoline Hydrochloride]
MGM (μM), cytotoxicity mean-graph midpoint [1, 8]: 0.090 µM | Top1 inhibitory activity ([2]; Table 1): ++++

COc1cc2c(cc1O)C(=O)c1c-2n(CCCN2CCOCC2)c(=O)c2cc(OC)c(OC)cc12 [Compound 18]
tumor growth during the treatment period ([4]; 40 nmol/mouse (2.0 μmol/kg) IP): regression of tumor growth | toxicity to the animals [4]: toxic | body weight during the treatment period [4]: retained their normal body weights | GI50 ([1]; Homo sapiens, NCI's panel of 60 cancer cell lines, read-out: cytotoxicity mean-graph midpoint (MGM) GI50 value): 87 nM | cytotoxicities [3]: low nanomolar range | pIC50 ([5]; Homo sapiens, 2 h incubation): 8.70 | Top1 inhibitory activity [2]: +++++

COc1ccc2c(c1)C(=O)c1c-2n(CCCNC(=O)OCCSSC[C@H](NC(=O)[C@H](CC(=O)O)NC(=O)[C@@H](N)CNC(=O)[C@H](Cc2ccccc2)NC(=O)[C@H](Cc2ccccc2)NC(=O)CCCCCCCNC(=O)CC[C@H](NC(=O)N[C@@H](CCC(=O)O)C(=O)O)C(=O)O)C(=O)O)c(=O)c2cc([N+](=O)[O-])ccc12 [Compound 84, (12R,15S,18S,22S,25S,39S,43S)-18-Amino-22,25-dibenzyl-15-(carboxymethyl)-1-(9-methoxy-3-nitro-5,11-dioxo-5,11-dihydro-6H-indeno[1,2-c]isoquinolin-6-yl)-5,14,17,21,24,27,36,41-octaoxo-6-oxa-9,10-dithia-4,13,16,20,23,26,35,40,42-nonaazapentatetracontane-12,39,43,45-tetracarboxylic acid]
solubility in water [6]: dissolve completely and easily | cytotoxicities [3]: low nanomolar range

COc1cc2c3c(n(CCCN4CCOCC4)c(=O)c2cc1OC)-c1cc(OC)c(OC(=O)OCCSSC[C@H](NC(=O)[C@H](CC(=O)O)NC(=O)[C@@H](N)CNC(=O)[C@H](Cc2ccccc2)NC(=O)[C@H](Cc2ccccc2)NC(=O)CCCCCCCNC(=O)CC[C@H](NC(=O)N[C@@H](CCC(=O)O)C(=O)O)C(=O)O)C(=O)O)cc1C3=O [Compound 86, (8R,11S,14S,18S,21S,35S,39S)-14-Amino-18,21-dibenzyl-11-(carboxymethyl)-1,10,13,17,20,23,32,37-octaoxo-1-((2,3,8-trimethoxy-6-(3-morpholinopropyl)-5,11-dioxo-6,11-dihydro-5H-indeno[1,2-c]isoquinolin-9-yl)oxy)-2-oxa-5,6-dithia-9,12,16,19,22,31,36,38-octaazahentetracontane-8,35,39,41-tetracarboxylic Acid]
deaths of animals during the treatment period ([4]; 40 nmol/mouse (2.0 μmol/kg) IP, 5 mice per group): not lethal; also recorded: no deaths | tumor growth during the treatment period ([4]; 40 nmol/mouse (2.0 μmol/kg) IP): cessation of tumor growth | toxicity to the animals [4]: non-toxic | antitumor activity in competition group ([4]; 86 at 40 nmol/mouse IP plus PSMA competitor 28 in 10-fold excess): complete loss of activity | body weight during the treatment period [4]: retained their normal body weights | solubility in water [6]: dissolved easily | solubility in water ([6]; listed as 30): dissolve completely and easily | cytotoxicities [3]: low nanomolar range | pIC50 ([5]; 24-hour incubation): 7.94 | IC50 ([5]; 2 h incubation): no activity

O=C(O)CCC(NC(=O)NC(CCC(=O)O)C(=O)O)C(=O)O (stereo not drawn) [DUPA, 2-[3-(1,3-Dicarboxypropyl)-Ureido]Pentanedioic Acid]
pIC50 [7]: 7.33 | pKi [7]: 8.10

COc1cc2c3c(n(CCCN4CCOCC4)c(=O)c2cc1OC)-c1cc2c(cc1C3=O)OCO2 [drawing 72]
MGM (μM), cytotoxicity mean-graph midpoint ([1]; Table 2): 4.64 µM | Top1 inhibitory activity ([2]; Table 2): ++++

COc1cc2c3c(n(CCCN4CCOCC4)c(=O)c2cc1OC)-c1cc2c(cc1C3=O)OCO2 [drawing 73]
MGM (μM), cytotoxicity mean-graph midpoint ([1]; Table 2): 0.079 µM | Top1 inhibitory activity ([2]; Table 2): ++++
